According to PubChem BioAssay (NCI):
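How tested: cells in 96-well plates exposed to compound for 48 hours at five concentrations. TGI denotes the concentration required for complete inhibition of growth.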

Tests used:
Test in all cases: NCI tumour cell line growth inhibition, 48 h
[1] = system: HCC-2998 colon
[2] = system: HOP-62 NSCLC
[3] = system: CCRF-CEM leukemia
[4] = system: IGROV1 ovarian
[5] = system: SF-295 CNS
[6] = system: K-562 leukemia
[7] = system: UO-31 renal
[8] = system: PC-3 prostate
[9] = system: NCI-H522 lung
[10] = system: NCI-H23 lung

| Compound | TGI [1] [µM] | TGI [2] [µM] | TGI [3] [µM] | TGI [4] [µM] | TGI [5] [µM] | TGI [6] [µM] | TGI [7] [µM] | TGI [8] [µM] | TGI [9] [µM] | TGI [10] [µM] |
| --- | --- | --- | --- | --- | --- | --- | --- | --- | --- | --- |
| O=C1/C(=C/c2ccccc2S)N=C(c2ccccc2)N1c1nc2c(Cl)cc(Cl)cc2s1 | 54.7 | 47.2 | 13.7 | 67.2 | 72.4 | 81.5 | 48.1 | 51.6 | – | – |
| N#Cc1c(-c2ccc(Cl)cc2Cl)nc2[nH][nH]c(=S)n2c1=O | > 100 | > 100 | > 100 | > 100 | > 100 | – | > 100 | > 100 | > 100 | > 100 |
| Cn1c(=O)c2c(nc(Cc3ccccc3)n2CC(=O)O)n(C)c1=O | > 100 | > 100 | > 100 | > 100 | > 100 | – | > 100 | > 100 | > 100 | > 100 |
| O=C(O)CCC(NC(=O)c1ccc(Nc2nc3cc(C(F)(F)F)ccc3nc2-c2ccccc2)cc1)C(=O)O (centres undefined) | > 100 | > 100 | > 100 | > 100 | > 100 | > 100 | > 100 | – | > 91.6 | > 100 |
| COC(CNC(=O)C(C)NC(=O)/C=C/c1ccccc1)OC (centres undefined) | – | – | > 100 | > 100 | > 100 | > 100 | > 100 | > 100 | > 100 | > 100 |
| CN(C)CCC(=O)c1ccccc1 | > 69.6 | > 100 | 62.4 | > 71 | > 100 | 85.4 | > 68.8 | – | 1.06 | > 74 |
| COc1ccc(S(=O)(=O)c2nnc(S(=O)(=O)Cc3ccccc3)s2)cc1 | – | 75.5 | – | – | 90.1 | > 100 | 43.4 | 47.7 | 27.1 | 62.3 |
| CCCNC(=S)NNC(=O)CSc1nc(-c2ccccc2)c(-c2ccccc2)[nH]1 | – | > 100 | > 100 | > 100 | > 100 | – | > 100 | – | 78.1 | > 100 |
| CN1CCN(C(=S)N2CCN(C)CC2)CC1 | > 100 | > 100 | – | > 100 | > 100 | > 100 | > 100 | > 100 | > 45.6 | > 100 |
| Cc1ccccc1N1C(=O)C2C=CC(n3[nH]c(=O)n(Cc4ccccc4)c3=O)CC2C1=O (centres undefined) | > 100 | > 100 | > 100 | > 100 | > 100 | > 100 | > 100 | – | > 100 | > 100 |
| O=C(O)[C@@H]1CCS(=O)(=O)N1 | > 100 | > 100 | > 100 | > 100 | > 100 | – | – | > 100 | > 100 | > 100 |
| CN=C1CC2c3cc(OC)c(OC)cc3CCN2C2=C1C(=O)CC(C)(C)C2 (centres undefined) | > 100 | – | > 100 | – | > 100 | – | > 100 | – | > 100 | > 100 |
| COC(=O)C1=C(O)C(C(=O)OC)[C@]2(O)[C@H](C(=O)OC)[C@H]1C[C@@H](c1ccc(C(F)(F)F)cc1)[C@H]2C(=O)OC (some centres undefined) | 14.7 | > 100 | – | 29 | 48.3 | > 100 | 8.42 | 94.6 | – | 21.7 |
| Nc1nc(N)c2c3c(cnc2n1)CC(c1ccccc1)CC3 (centres undefined) | > 100 | 76.7 | – | 21.7 | > 100 | > 100 | – | > 100 | 35.9 | – |
| CCCCCCOC(=O)/C=C/[C@]1(CO)C/C(=C/CC(C(C)C)C(C)C)C(=O)O1 | 6.18 | 27.6 | – | 28.9 | 29.8 | 31.2 | 17.8 | 24.4 | 25.9 | 25 |
| CC(C)C(=O)OCC1OC(n2c(Br)nc3c(=O)[nH]c(N)nc32)C(OC(=O)C(C)C)C1OC(=O)C(C)C (centres undefined) | – | > 100 | – | – | 56.7 | – | > 100 | 62.9 | > 100 | – |
| NNC(=O)c1n[nH]nc1C(=O)NN | > 100 | > 100 | > 100 | – | > 100 | > 100 | 41.8 | > 100 | – | > 100 |
| O=C1CCCC1CN1CCCC1 (centres undefined) | > 60.4 | > 100 | 1.16 | 26.6 | > 100 | 1.18 | 17.6 | 35.2 | – | 31.3 |
